Key:
ER reporter = ER reporter degradation; assay type: cell-based, human; settings: 1 μM (legend, SERDs)
Method: Reporter cell lines were seeded in triplicate at a density of 1 million cells/ml in 100 μl per well in a 96 well plate and measured once. Ligand was added by Digital Dispenser (Tecan), and incubated at 37°C for the appropriate time before reading by flow cytometry. Cells were analyzed for GFP vs mCherry expression. GFP expression was normalized to mCherry signal and ligand treatments were compared to DMSO controls.

[1] = test system: ER reporter (E3 ligase dependence); assay: Targeted CRISPR screens, ER reporter K562 cells: E3 ligase used; assay type: cell-based, human; settings: for E3 ligase used for ER degradation: K562 ER reporter, CRISPR screen; for E3 Ligase (Table S2): Supplemental Table S2
Method: To characterize the UPS pathway components involved in SERD-induced ER degradation, we performed CRISPR screens with our ER reporter in the presence multiple SERDs: fulvestrant, GDC-0927, elacestrant, giredestrant, camizestrant, amcenestrant, AZD-9496, brilanestrant, and LSZ-102. […] Taken together, these findings indicate that different classes of SERDs engage distinct ubiquitin ligases and degradation pathways to target ER.
The UPS and tiling CRISPR functional genomics screen was performed following previously described methods.[22] Briefly, the UPS CRISPR library targets 713 E1, E2, E3 ubiquitin ligases, and deubiquitinases and includes controls genes with a total of 2852 guide RNAs, cloned into the pXPR003 backbone. The UBR5 Tiling screen was created by CRISPR-SURF.[29] Viruses were produced in a T-175 format and ten percent by volume of the library virus was added to reporter cell lines in triplicates for transduction. Transduced cells were allowed to recover and expand for nine days, then treated with indicated ligand. Top and bottom 5% of cells by GFP signal were sorted for a total of at least 100,000 cells per replicate. Samples were processed as previously described.[22]
Reporter cell lines were treated with ATRA or 9-cis RA, and then sorted into four populations by eGFP/mCherry fluorescence ratios (Gates A-D), corresponding to the bottom and top 5–10% respectively (Figure S1D).[22],[23] Sorted cells were pelleted, lysed, and processed according to previous studies.[22] Briefly sgRNAs were amplified in two PCRs via Titanium Taq (Takara Bio 639210), Titanium Taq Buffer and 800uM dNTP mix and eight staggered forward primers. The first PCR also contained 200 nM SBS3-Stagger-pXPR003 forward primer and 200 nM SBS12-pXPR003 reverse primer (cycles: 5 minutes at 94°C, 15 × (30 sec at 94°C, 15 sec at 58°C, 30 sec at 72°C), 2 minutes at 72°C). Illumina adapters and barcodes were added in the second PCR (200 nM P5-SBS3 forward primer, 200 nM P7-barcode-SBS12 reverse primer). Samples were pooled and purified by agarose gel-electrophoresis (Qiagen) and NaOAc/isopropanol precipitation. Amplified guides were quantified by next-generation sequencing (Genomics Platform, Broad Institute), and analyzed for enrichment in Gate A over Gate D, representing degradation rescue.

ER [2] = assay: ER degradation after RNF111 or UBR5 knockdown (reporter K562; T47D western); assay type: cell-based, human; settings: K562 ER-GFP, shUBR5 / sgRNF111, Figure S8C, D
Method: Cells were analyzed for GFP vs mCherry expression.
Protein concentration was quantified via Pierce BCA Protein Assay Kit (ThermoFisher, 23225), and equal amounts of lysates were run on either SDS-PAGE 3–8% Tris-Acetate or 4–12% Bis-Tris Protein Gels (NuPAGE, ThermoFisher), then transferred to a PVDF membrane (Biorad, Wet Transfer System). Membranes were blocked for 30 minutes to 1 hour at room temperature in Odyssey Blocking Buffer/PBS (LI-COR Biosciences), and incubated with primary antibodies at 4 °C overnight. Stained membranes were washed three times in Tris-buffered saline with Tween 20 (TBS-T) and incubated for 1 hour at room temperature with secondary IRDye-conjugated antibodies (LI-COR Biosciences). Membranes were washed three times in TBS-T before imaging (Odyssey Imaging System, LI-COR Biosciences).

ER and RNF111 [3] = assay: BRET assay of RNF111 and ER; assay type: cell-based, human
Description: Bioluminescence resonance energy transfer (BRET) experiments were done using the NanoBRET PPI kit (Promega, N1821) according to manufacturer’s instructions.

ER [4] = settings: cited from earlier work
Description: SERDs are a class of molecules targeting the ER for the treatment of breast cancer. […] Given that UBR5 is similarly recruited to the NR hydrophobic cleft, we hypothesized that fulvestrant and other SERDs may employ a different mechanism for ER degradation. […] One of the best understood SERDs, fulvestrant, drastically remodels the hydrophobic cleft[16],[17] in a manner incompatible with UBR5 or NCOA binding. […] Strikingly, this correlates with clinical utility, hallmarked by the wide use of fulvestrant and recent approval of elacestrant,[53] both of which employ RNF111, in contrast to UBR5 SERDs (Table S2), none of which have been approved for clinical use. The heterogeneity of ER transcriptional pro ...

ER and RNF111 [5] = assay: Co-immunoprecipitation of FLAG-RNF111 and ER-GFP in 293T; settings: ± MG132
Method: (B) ER reporter degradation following 1 μM of specified SERD treatment. […] UBR5 is highlighted in blue, RNF111, CRBN, VHL are highlighted in red. (D) Western blots of T47D cells transduced with sgRNAs against RNF111 treated with or without fulvestrant. […] (NS, not significant, *p < 0.05, **p < 0.005, ***p < 0.0005, ****p < 0.00005, error bars represent SEM.)
Reporter cells (up to 100 million) were treated with ligand (ATRA, dexamethasone) and allowed to incubate for different time points. […] Lysates were incubated with GFP-Trap Magnetic Agarose beads (ChromoTek, GTMA-20) overnight at 4°C on a rotator. Beads were magnetically removed and washed three times with Pierce IP Lysis Buffer with ligand added before boiling in 1x NuPAGE LDS Sample Buffer (ThermoFischer, NP0007). […] Experiments were repeated and representative images are shown.

ER and UBR5 = assay: Co-immunoprecipitation of ER-GFP and UBR5 in K562; assay type: cell-based, human; settings: K562 ER-GFP, with MG132, 16 h
Description: Blotting was done as described above.
Fulvestrant GDC-0927 Elacestrant Giredestrant Camizestrant Amcenestrant […]
log2 Ratio log2 Ratio log2 Ratio log2 Ratio log2 Ratio log2 Ratio […]
Amcenestrant Camizestrant GiredestrantBrilanestrant Fulvestrant ElacestrantAmcenestrant Camizestrant Giredestrant Brilanestrant […]
50 FulvestrantBrilanestrant
Figure S8. Non-endogenousligands recruitdifferent E3 ligases to induce ER degradation,Related to Figure 6 […]
VHL are highlighted in red. (C) Degradation (GFP/mCherry) of ER-GFP in K562 reporter cell lines treated with shRNAs targeting UBR5 and the specified SERDs or ER PROTACs. (D) Degradation (GFP/mCherry) of ER-GFP in K562 reporter cell lines treated with sgRNAs targeting RNF111 and the specified SERDs or ER PROTACs. (E) Western blots of T47D cells […]
treated with or without Brilanestrant. (G) Bioluminescence Resonance Energy Transfer (BRET) assay of ER, treated +/- fulvestrant or brilanestrant. (n=6 two sided t-test) (H) Western blots of ER co-immunoprecipitations from K562 ER-GFP reporter cells treated with brilanestrant and MG132 for 16 hours, and blotted with antibodies specific for GFP, and UBR5 as indicated. NS, not […]

C[C@]12CC[C@@H]3c4ccc(O)cc4C[C@@H](CCCCCCCCC[S+]([O-])CCCC(F)(F)C(F)(F)F)[C@H]3[C@@H]1CC[C@@H]2O (stereo partly drawn) [fulvestrant]
ER reporter degradation (ER reporter): induced ER reporter degradation
E3 ligase used for ER degradation [1]: employed a different E3 ligase, RNF111
E3 Ligase (Table S2) [1]: RNF111
regulated class of ER degradation (RNF111 or UBR5) (ER [2]): RNF111 Regulated
ER-RNF111 BRET, significance (mBU) (ER and RNF111 [3]; Figure S8G, n = 6 two sided t-test): * (*p < 0.05)
association of RNF111 with ER by BRET (ER and RNF111 [3]; n = 6): induces association of RNF111 with ER
ER degradation (literature) (ER [4]; ref [17], [53]): lead to ER degradation
ER transcriptional profile following SERD treatment (ER [4]; ref [17],[55]): most antagonistic of tested SERDs
effect on helix 12 and ER hydrophobic cleft (ER [4]; ref [54]): destabilize helix 12 and block the ER hydrophobic cleft, preventing coactivation
association of RNF111 with ER by co-immunoprecipitation (ER and RNF111 [5]): induces association of RNF111 with ER

CC/C(=C(/c1ccc(/C=C/C(=O)O)cc1)c1ccc2[nH]ncc2c1)c1ccc(F)cc1Cl [brilanestrant]
ER reporter degradation (ER reporter): induced ER reporter degradation
E3 ligase used for ER degradation [1]: required UBR5 for degradation
E3 Ligase (Table S2) [1]: UBR5
regulated class of ER degradation (RNF111 or UBR5) (ER [2]): UBR5 Regulated
ER and UBR5 interaction by co-immunoprecipitation (ER and UBR5): increased ER and UBR5 interactions
